According to patent publication US20250171438A1 (Agios Pharmaceuticals, Inc., priority 2022, published 2025):

biological target: T1, human PAH with the R408W mutation (Homo sapiens, UniProt P00439, R408W); test: Cell Based Phenylalanine Flux Assay; details: A375 cells expressing human R408W PAH; 24 hrs compound incubation; 13C-Tyrosine by LC-MS; average where tested multiple times; read-out: AC50
T1 construct: expressed in transfected cells
T1 sequence (P00439 1-452 R408W): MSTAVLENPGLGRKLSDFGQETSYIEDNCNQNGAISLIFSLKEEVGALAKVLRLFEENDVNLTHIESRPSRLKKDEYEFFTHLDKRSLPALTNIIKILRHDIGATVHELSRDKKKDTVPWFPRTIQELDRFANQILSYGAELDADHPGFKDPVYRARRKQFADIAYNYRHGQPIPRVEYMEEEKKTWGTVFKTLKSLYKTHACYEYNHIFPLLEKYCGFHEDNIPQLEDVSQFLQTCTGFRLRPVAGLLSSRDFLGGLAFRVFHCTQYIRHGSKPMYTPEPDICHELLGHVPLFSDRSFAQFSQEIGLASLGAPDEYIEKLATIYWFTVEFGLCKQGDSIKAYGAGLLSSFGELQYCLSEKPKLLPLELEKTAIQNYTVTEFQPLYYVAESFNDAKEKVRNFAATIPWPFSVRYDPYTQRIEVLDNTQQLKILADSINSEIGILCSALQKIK

Q: `O=C(CCc1nccs1)N1CCc2[nH]cnc2[C@H]1c1nc2ccccc2[nH]1` [Example 900, (S)-1-(4-(1H-benzo[d]imidazol-2-yl)-6,7-dihydro-1H-imidazo[4,5-c]pyridin-5(4H)-yl)-3-(thiazol-2-yl)propan-1-one] was tested. Which AC50 did it give?
A: Its AC50 is 500 to 1000 nM.

Q: With `CC(C)(O)c1nc(C(F)F)c(C(=O)N2CCc3[nH]cnc3[C@H]2c2nc3ccccc3s2)s1` [Example 2105] as the compound, how does the AC50 read?
A: Its AC50 is < 500 nM.

Q: How did the AC50 turn out when `O=C(CC1CC1)N1CCc2[nH]cnc2[C@@H]1c1nc2cc(F)ccc2s1` [Example 1136, (R)-2-cyclopropyl-1-(4-(5-fluorobenzo[d]thiazol-2-yl)-6,7-dihydro-1H-imidazo[4,5-c]pyridin-5(4H)-yl)ethanone] was run?
A: Its AC50 is 1000 to 5000 nM.

Q: For `O=C(c1nnc(-c2c(F)cccc2F)o1)N1CCc2[nH]cnc2[C@@H]1c1nc2ccccc2s1` [Example 1368, (R)-(4-(benzo[d]thiazol-2-yl)-6,7-dihydro-1H-imidazo[4,5-c]pyridin-5(4H)-yl)(5-(2,6-difluorophenyl)-1,3,4-oxadiazol-2-yl)methanone], which AC50 is on record?
A: Its AC50 is < 500 nM.

Q: For `O=C(c1cnn2ccccc12)N1CCc2[nH]cnc2[C@H]1c1nc2cccc(Br)c2s1` [Example 1335, (S)-(4-(7-bromobenzo[d]thiazol-2-yl)-6,7-dihydro-1H-imidazo[4,5-c]pyridin-5(4H)-yl)(pyrazolo[1,5-a]pyridin-3-yl)methanone], which AC50 is on record?
A: The AC50 was < 500 nM.

Q: Which AC50 does the source give for `O=C(CC1CC1)N1CCc2[nH]cnc2[C@@H]1c1nc2ccccc2s1` [Example 1072, (R)-1-(4-(benzo[d]thiazol-2-yl)-6,7-dihydro-1H-imidazo[4,5-c]pyridin-5(4H)-yl)-2-cyclopropylethanone] here?
A: The AC50 was 1000 to 5000 nM.

Q: For `O=C(c1cnc(-c2ccc(F)cn2)s1)N1CCc2[nH]cnc2[C@H]1c1nc2ccccc2s1` [Example 1339], which AC50 is on record?
A: Its AC50 is < 500 nM.

Q: `O=C(c1cn[nH]c1Cl)N1CCc2[nH]cnc2[C@H]1c1nc2ccccc2s1` [Example 2036] was tested. Which AC50 did it give?
A: The AC50 was < 500 nM.

Q: How did the AC50 turn out when `CC1(C)CC=C(c2ncc(C(=O)N3CCc4[nH]cnc4[C@@H]3c3nc4ccccc4s3)s2)CC1` [Example 1352, (R)-(4-(benzo[d]thiazol-2-yl)-6,7-dihydro-1H-imidazo[4,5-c]pyridin-5(4H)-yl)(2-(4,4-dimethylcyclohex-1-en-1-yl)thiazol-5-yl)methanone] was run?
A: The AC50 was 1000 to 5000 nM.

Q: Which AC50 does the source give for `CC(C)(O)c1ncc(C(=O)N2CCc3[nH]cnc3[C@H]2c2nc3c(F)cccc3s2)o1` [Example 1483, (S)-(4-(4-fluorobenzo[d]thiazol-2-yl)-6,7-dihydro-1H-imidazo[4,5-c]pyridin-5(4H)-yl)(2-(2-hydroxypropan-2-yl)oxazol-5-yl)methanone] here?
A: The AC50 was 500 to 1000 nM.

Q: `O=C(c1cnc(-c2ccnc(C(F)(F)F)c2)s1)N1CCc2[nH]cnc2[C@H]1c1nc2ccccc2s1` [Example 1403] was tested. Which AC50 did it give?
A: Its AC50 is 500 to 1000 nM.

Q: With `O=C(c1oc(CCC2CC2)nc1C(F)(F)F)N1CCc2[nH]cnc2[C@H]1c1nc2ccccc2s1` [Example 1579] as the compound, how does the AC50 read?
A: Its AC50 is < 500 nM.

Q: How did the AC50 turn out when `C=Cc1ccc2c(C(=O)N3CCc4[nH]cnc4[C@@H]3c3nc4ccccc4s3)cnn2c1` [Example 1232, (R)-(4-(benzo[d]thiazol-2-yl)-6,7-dihydro-1H-imidazo[4,5-c]pyridin-5(4H)-yl)(6-vinylpyrazolo[1,5-a]pyridin-3-yl)methanone] was run?
A: The AC50 was 1000 to 5000 nM.

Q: For `Brc1ccc2nc([C@@H]3c4nc[nH]c4CCN3Cc3nccs3)[nH]c2c1` [Example 971, (S)-2-((4-(6-bromo-1H-benzo[d]imidazol-2-yl)-6,7-dihydro-1H-imidazo[4,5-c]pyridin-5(4H)-yl)methyl)thiazole], which AC50 is on record?
A: The AC50 was < 500 nM.

Q: Which AC50 does the source give for `CC(C)(O)c1nc(C(F)F)c(C(=O)N2CCc3[nH]cnc3[C@@H]2c2nc3ccccc3s2)o1` [Example 1810, (R)-(4-(benzo[d]thiazol-2-yl)-6,7-dihydro-1H-imidazo[4,5-c]pyridin-5(4H)-yl)(4-(difluoromethyl)-2-(2-hydroxypropan-2-yl)oxazol-5-yl)methanone] here?
A: The AC50 was 1000 to 5000 nM.

Q: Which AC50 does the source give for `O=C(c1ccnn1-c1ccccn1)N1CCc2[nH]cnc2[C@H]1c1nc2c(F)cccc2s1` [Example 1757, (S)-(4-(4-fluorobenzo[d]thiazol-2-yl)-6,7-dihydro-1H-imidazo[4,5-c]pyridin-5(4H)-yl)(1-(pyridin-2-yl)-1H-pyrazol-5-yl)methanone] here?
A: Its AC50 is 500 to 1000 nM.

Q: How did the AC50 turn out when `O=C(c1nccs1)N1CCc2nc[nH]c2[C@H]1c1nc2c(F)cccc2s1` [Example 1120, (S)-(4-(4-fluorobenzo[d]thiazol-2-yl)-6,7-dihydro-3H-imidazo[4,5-c]pyridin-5(4H)-yl)(thiazol-2-yl)methanone] was run?
A: Its AC50 is 500 to 1000 nM.

Q: With `Cn1cc(-c2nnc(C(=O)N3CCc4[nH]cnc4[C@H]3c3nc4ccccc4s3)o2)cn1` [Example 1462] as the compound, how does the AC50 read?
A: Its AC50 is 1000 to 5000 nM.

Q: For `O=C(c1ncc(Cl)s1)N1CCc2[nH]cnc2[C@H]1c1nc2ccc(Br)cc2[nH]1` [Example 975, (S)-(4-(6-bromo-1H-benzo[d]imidazol-2-yl)-6,7-dihydro-1H-imidazo[4,5-c]pyridin-5(4H)-yl)(5-chlorothiazol-2-yl)methanone], which AC50 is on record?
A: Its AC50 is 500 to 1000 nM.

Q: How did the AC50 turn out when `CC(C)(O)c1cc(C(=O)N2CCc3[nH]cnc3[C@@H]2c2nc3c(F)cccc3s2)on1` [Example 2169, (R)-(4-(4-fluorobenzo[d]thiazol-2-yl)-6,7-dihydro-1H-imidazo[4,5-c]pyridin-5(4H)-yl)(3-(2-hydroxypropan-2-yl)isoxazol-5-yl)methanone] was run?
A: Its AC50 is 1000 to 5000 nM.

Q: For `O=C(CCC1CC1)N1CCc2[nH]cnc2[C@@H]1c1nc2ccc(Br)cc2s1` [Example 1146, (R)-1-(4-(6-bromobenzo[d]thiazol-2-yl)-6,7-dihydro-1H-imidazo[4,5-c]pyridin-5(4H)-yl)-3-cyclopropylpropan-1-one], which AC50 is on record?
A: Its AC50 is 500 to 1000 nM.

Q: For `O=C(c1cnn2c(Br)cccc12)N1CCc2[nH]cnc2[C@@H]1c1nc2ccccc2s1` [Example 1070, (R)-(4-(benzo[d]thiazol-2-yl)-6,7-dihydro-1H-imidazo[4,5-c]pyridin-5(4H)-yl)(7-bromopyrazolo[1,5-a]pyridin-3-yl)methanone], which AC50 is on record?
A: The AC50 was 1000 to 5000 nM.

Q: For `C[C@@H]1CN(C(=O)c2ocnc2C2CC2)[C@H](c2nc3c(F)cccc3s2)c2nc[nH]c21` [Example 1551, (4-cyclopropyloxazol-5-yl)((4S,7R)-4-(4-fluorobenzo[d]thiazol-2-yl)-7-methyl-6,7-dihydro-1H-imidazo[4,5-c]pyridin-5(4H)-yl)methanone], which AC50 is on record?
A: Its AC50 is 500 to 1000 nM.

same assay, conditions: A375 cells expressing human R408W PAH; 24 hrs with compound; 13C-Tyrosine by LC-MS; average where tested multiple times; read-out: AC50

Q: With `O=C(CCc1nccs1)N1CCc2nc[nH]c2C1c1nc2cc(Br)ccc2s1` (centres unmarked) as the compound, how does the AC50 read?
A: Its AC50 is 1000 to 5000 nM.

Q: `O=C(c1cc2cccnn2c1)N1CCc2[nH]cnc2[C@H]1c1nc2ccccc2[nH]1` [(S)-(4-(1H-benzo[d]imidazol-2-yl)-1,4,6,7-tetrahydro-5H-imidazo[4,5-c]pyridin-5-yl)(pyrrolo[1,2-b]pyridazin-6-yl)methanone] was tested. Which AC50 did it give?
A: The AC50 was > 5000 nM.

Q: Which AC50 does the source give for `Cc1nnc(CCC(=O)N2CCc3[nH]cnc3C2c2nc3ccc(Cl)cc3[nH]2)s1` (centres unmarked) here?
A: Its AC50 is > 5000 nM.

Q: How did the AC50 turn out when `O=C(C1CCCCC1)N1CCc2[nH]cnc2[C@H]1c1nc2ccccc2[nH]1` [(S)-(4-(1H-benzo[d]imidazol-2-yl)-1,4,6,7-tetrahydro-5H-imidazo[4,5-c]pyridin-5-yl)(cyclohexyl)methanone] was run?
A: Its AC50 is 1000 to 5000 nM.

Q: With `O=C(c1cc2ccccn2n1)N1CCc2nc[nH]c2C1c1nc2ccccc2s1` (centres unmarked) as the compound, how does the AC50 read?
A: Its AC50 is > 5000 nM.

Q: `O=C(c1cnn2cc(N3CCCC3)ccc12)N1CCc2[nH]cnc2C1c1nc2ccccc2s1` (centres unmarked) was tested. Which AC50 did it give?
A: The AC50 was 1000 to 5000 nM.
